Experimental data from patent US5756473A, “6-O-methyl erythromycin D and process for making” (Abbott Laboratories, priority 1995, dated 1998).
Values after ≈ are worked out from the molar mass of the structure shown. Read-outs that look alike come from different tables or passages of the source.

Assays:
Streptococcus agalactiae = test: In vitro antibacterial activity, agar dilution MIC (Streptococcus agalactiae); type: cell-based
Procedure: (§1) The 6-O-methyl erythromycin D compound of the present invention was assayed in vitro for antibacterial activity as follows: Twelve petri dishes containing successive aqueous dilutions of the test compound mixed with 10 mL of sterilized Brain Heart Infusion (BHI) agar (Difco 0418-01-5) were prepared. Each plate was inoculated with 1:100 (or 1:10 for slow-growing strains, such as Micrococcus and Streptococcus) dilutions of up to 32 different microorganisms, using a Steers replicator block. The inoculated plates were incubated at 35°-37° C. for 20 to 24 hours. In addition, a control plate, using BHI agar containing no test compound, was prepared and incubated at the beginning and end of each test.
(§2) An additional plate containing a compound having known susceptibility patterns for the organisms being tested and belonging to the same antibiotic class as the test compound was also prepared and incubated as a further control, as well as to provide test-to-test comparability. Erythromycin A was used for this purpose.
(§3) After incubation, each disk was read. The minimum inhibitory concentration (MIC) was defined as the lowest concentration of drug yielding no growth, a slight haze, or sparsely isolated colonies on the inoculum spot as compared to the growth control.

[1] = tested on: Acinetobacter calcoaceticus; test: microbe, parasite or virus in culture
Procedure: as §1, §2, §3

Klebsiella pneumoniae = test: microbe, parasite or virus in culture; settings: ATCC8045
Procedure: as §1, §2, §3

Enterococcus faecium = test: In vitro antibacterial activity, agar dilution MIC (Enterococcus faecium); type: cell-based; settings: ATCC8043, strain ATCC 8043, BHI agar, 35-37 °C, 20 to 24 hours
Enterobacter aerogenes = test: In vitro antibacterial activity, agar dilution MIC (Enterobacter aerogenes); type: cell-based; settings: Klebsiella aerogenes, ATCC13048; strain ATCC 13048; BHI agar, 35-37 °C, 20 to 24 hours
Streptococcus bovis = test: In vitro antibacterial activity, agar dilution MIC (Streptococcus bovis); type: cell-based; settings: Streptococcus equinus
Procedure: as §1, §2, §3

Mycobaceterium smegmatis = test: In vitro antibacterial activity, agar dilution MIC (Mycobaceterium smegmatis); type: cell-based
Procedure: as §1, §2, §3

Providencia stuartii = test: In vitro antibacterial activity, agar dilution MIC (Providencia stuartii); type: cell-based; settings: strain CMX 640, BHI agar, 35-37 °C, 20 to 24 hours
Staphylococcus aureus = test: In vitro antibacterial activity, agar dilution MIC (Staphylococcus aureus); type: cell-based; settings: BHI agar, 35-37 °C, 20 to 24 hours
Procedure: as §1, §2, §3

Micrococcus luteus = test: In vitro antibacterial activity, agar dilution MIC (Micrococcus luteus); type: cell-based
Procedure: as §1, §2, §3

[2] = tested on: Staphylococcus epidermidis; test: In vitro antibacterial activity, agar dilution MIC (Staphylococcus epidermidis); type: cell-based
Procedure: as §1, §2, §3

Pseudomonas aeruginosa = test: In vitro antibacterial activity, agar dilution MIC (Pseudomonas aeruginosa); type: cell-based; settings: for MIC: Pseudomonas aeruginosa
Procedure: as §1, §2, §3

Streptococcus pyogenes = test: In vitro antibacterial activity, agar dilution MIC (Streptococcus pyogenes); type: cell-based; settings: 35-37 °C, 20 to 24 hours
Procedure: as §1, §2, §3

Nocardia asteroides = test: In vitro antibacterial activity, agar dilution MIC (Nocardia asteroides); type: cell-based; settings: ATCC9970, strain ATCC 9970, BHI agar, 35-37 °C, 20 to 24 hours
Procedure: as §1, §2, §3

Escherichia coli = test: In vitro antibacterial activity, agar dilution MIC (Escherichia coli); type: cell-based; settings: 35-37 °C, 20 to 24 hours
Candida albicans = test: microbe, parasite or virus in culture
Procedure: as §1, §2, §3

microorganisms = test: In vitro assay of antibacterial activity (overall conclusion); type: cell-based; settings: overall conclusion from Table 1
Procedure: Erythromycin A was used for this purpose.
After incubation, each disk was read.

[3] = Staphylococcus aureus, strain 1775 Cipro R
[4] = Staphylococcus aureus, strain A5177
[5] = Staphylococcus aureus, strain A5278
[6] = strain 2862, BHI agar, 35-37 °C, 20 to 24 hours
[7] = strain 5263, BHI agar, 35-37 °C, 20 to 24 hours
[8] = strain A5007, BHI agar, 35-37 °C, 20 to 24 hours
[9] = strain K799/WT, BHI agar, 35-37 °C, 20 to 24 hours
[10] = strain DC-2, BHI agar, read-out: MIC
[11] = strain Juhl, BHI agar, read-out: MIC
[12] = strain KNK 437, BHI agar, read-out: MIC
[13] = strain SS, BHI agar, read-out: MIC

Compound | MIC [1] | MIC (Klebsiella pneumoniae) | MIC (Enterococcus faecium) | MIC (Enterobacter aerogenes) | MIC (Providencia stuartii) | MIC (Staphylococcus aureus; [3]) | MIC (Staphylococcus aureus; [4]) | MIC (Staphylococcus aureus; [5]) | MIC (Micrococcus luteus) | MIC (Pseudomonas aeruginosa) | MIC (Pseudomonas aeruginosa; [6]) | MIC (Pseudomonas aeruginosa; [7]) | MIC (Pseudomonas aeruginosa; [8]) | MIC (Pseudomonas aeruginosa; [9]) | MIC (Streptococcus pyogenes; strain 930 const, BHI agar) | MIC (Streptococcus pyogenes; strain 2548 induc, BHI agar) | MIC (Nocardia asteroides) | MIC (Escherichia coli; [10]) | MIC (Escherichia coli; strain H560, BHI agar) | MIC (Escherichia coli; [11]) | also measured
CC[C@H]1OC(=O)[C@H](C)[C@@H](O[C@H]2C[C@@](C)(OC)[C@@H](O)[C@H](C)O2)[C@H](C)[C@@H](O[C@@H]2O[C@H](C)C[C@H](N(C)C)[C@H]2O)[C@](C)(O)C[C@@H](C)C(=O)[C@H](C)[C@@H](O)[C@]1(C)O [Erythromycin A, reference compound] | 12.5 µg/mL (≈ 17 µM) | 50 µg/mL (≈ 68.1 µM) | 0.05 µg/mL (≈ 0.0681 µM) | 100 µg/mL (≈ 136 µM) | > 100 µg/mL | > 100 µg/mL | 1.56 µg/mL (≈ 2.13 µM) | > 100 µg/mL | 0.01 µg/mL (≈ 0.0136 µM) | > 100 µg/mL | > 100 µg/mL | > 100 µg/mL | > 100 µg/mL | > 100 µg/mL | > 100 µg/mL | 6.2 µg/mL (≈ 8.45 µM) | 0.05 µg/mL (≈ 0.0681 µM) | 50 µg/mL (≈ 68.1 µM) | 2.5 µg/mL (≈ 3.41 µM) | 50 µg/mL (≈ 68.1 µM) | MIC (Streptococcus agalactiae): 0.05 µg/mL (≈ 0.0681 µM); MIC (Streptococcus bovis): 0.02 µg/mL (≈ 0.0273 µM); MIC (Mycobaceterium smegmatis): 12.5 µg/mL (≈ 17 µM); MIC (Staphylococcus aureus; Staphylococcus aureus, ATCC6538P, strain ATCC 6538P): 0.2 µg/mL (≈ 0.273 µM); MIC (Staphylococcus aureus; Staphylococcus aureus, NCTC10649, strain NCTC 10649): 0.2 µg/mL (≈ 0.273 µM); MIC (Staphylococcus aureus; Staphylococcus aureus, strain CMX 553): 0.2 µg/mL (≈ 0.273 µM); MIC (Staphylococcus aureus; Staphylococcus aureus, strain 642a): 0.2 µg/mL (≈ 0.273 µM); MIC (Micrococcus luteus; ATCC9341): 0.05 µg/mL (≈ 0.0681 µM); MIC [2]: 0.2 µg/mL (≈ 0.273 µM); MIC (Pseudomonas aeruginosa; strain K799/61, BHI agar, 35-37 °C, 20 to 24 hours): > 100 µg/mL; MIC (Streptococcus pyogenes; strain EES61, BHI agar): 0.05 µg/mL (≈ 0.0681 µM); MIC (Escherichia coli; [12]): 50 µg/mL (≈ 68.1 µM); MIC (Escherichia coli; [13]): 0.2 µg/mL (≈ 0.273 µM)
CC[C@H]1OC(=O)[C@H](C)[C@@H](O[C@H]2C[C@@](C)(O)[C@@H](O)[C@H](C)O2)[C@H](C)[C@@H](O[C@@H]2O[C@H](C)C[C@H](N(C)C)[C@H]2O)[C@](C)(OC)C[C@@H](C)C(=O)[C@H](C)[C@@H](O)[C@H]1C [Example 3, 6-O-Methylerythromycin D] | > 100 µg/mL | > 100 µg/mL | 0.1 µg/mL (≈ 0.139 µM) | > 100 µg/mL | > 100 µg/mL | > 100 µg/mL | 3.1 µg/mL (≈ 4.32 µM) | > 100 µg/mL | 1.56 µg/mL (≈ 2.17 µM) | 1.56 µg/mL (≈ 2.17 µM) | > 100 µg/mL | > 100 µg/mL | > 100 µg/mL | > 100 µg/mL | > 100 µg/mL | 3.1 µg/mL (≈ 4.32 µM) | 0.05 µg/mL (≈ 0.0696 µM) | > 100 µg/mL | > 100 µg/mL | > 100 µg/mL | MIC (Streptococcus agalactiae; strain 508, BHI agar, 35-37 °C, 20 to 24 hours, read-out: MIC): 0.05 µg/mL (≈ 0.0696 µM); MIC (Candida albicans): > 100 µg/mL; MIC (Streptococcus bovis; strain A5169, BHI agar, 35-37 °C, 20 to 24 hours, read-out: MIC): 0.01 µg/mL (≈ 0.0139 µM); antibacterial effectiveness (in words) (Mycobaceterium smegmatis; Mycobaceterium smegmatis ATCC 114, comparison with Erythromycin A control): significantly more effective; MIC (Mycobaceterium smegmatis; strain ATCC 114, BHI agar, 35-37 °C, 20 to 24 hours, read-out: MIC): 0.78 µg/mL (≈ 1.09 µM); MIC (Staphylococcus aureus; Staphylococcus aureus, ATCC6538P, strain ATCC 6538P, read-out: MIC): 0.39 µg/mL (≈ 0.543 µM); MIC (Staphylococcus aureus; Staphylococcus aureus, NCTC10649, strain NCTC 10649, read-out: MIC): 0.39 µg/mL (≈ 0.543 µM); MIC (Staphylococcus aureus; Staphylococcus aureus, strain 642a, read-out: MIC): 0.39 µg/mL (≈ 0.543 µM); MIC (Staphylococcus aureus; strain CMX 553): 0.39 µg/mL (≈ 0.543 µM); MIC (Micrococcus luteus; ATCC9341, strain ATCC 9341, BHI agar, 35-37 °C, 20 to 24 hours, read-out: MIC): 0.05 µg/mL (≈ 0.0696 µM); MIC ([2]; strain 3519, BHI agar, 35-37 °C, 20 to 24 hours, read-out: MIC): 0.39 µg/mL (≈ 0.543 µM); antibacterial activity (in words) (microorganisms): effective antibacterial agent; antibacterial effectiveness (in words) (Pseudomonas aeruginosa; Pseudomonas aeruginosa K799/61, comparison with Erythromycin A control): significantly more effective; MIC (Pseudomonas aeruginosa; strain BMH10, BHI agar, 35-37 °C, 20 to 24 hours): > 100 µg/mL; MIC (Streptococcus pyogenes; strain EES61, BHI agar, read-out: MIC): 0.05 µg/mL (≈ 0.0696 µM); MIC (Escherichia coli; [12]): > 100 µg/mL; MIC (Escherichia coli; [13]): 0.39 µg/mL (≈ 0.543 µM)
